From PubChem BioAssay (NCI)
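Dose response: 5 concentrations. Exposure: 48 h. Format: 96-well plates. Endpoint: linear interpolation; highest concentration if not reached. GI50 marks 50% less growth. TGI is the concentration that stops growth completely.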

What was measured:
Experiment in all cases: inhibition of tumour cell growth, NCI panel, 48 h
[1] = test system: COLO 205 colon
[2] = test system: HL-60(TB) leukemia
[3] = test system: SF-539 CNS
[4] = test system: LOX IMVI melanoma
[5] = test system: T-47D breast
[6] = test system: RPMI-8226 leukemia
[7] = test system: NCI-H522 lung
[8] = test system: NCI/ADR-RES ovarian
[9] = test system: HCC-2998 colon
[10] = test system: HOP-62 NSCLC

| SMILES | GI50 [1] [µM] | TGI [1] [µM] | GI50 [2] [µM] | GI50 [3] [µM] | TGI [3] [µM] | GI50 [4] [µM] | TGI [4] [µM] | GI50 [5] [µM] | TGI [5] [µM] | GI50 [6] [µM] | TGI [6] [µM] | GI50 [7] [µM] | TGI [7] [µM] | GI50 [8] [µM] | TGI [8] [µM] | GI50 [9] [µM] | TGI [9] [µM] | GI50 [10] [µM] | TGI [10] [µM] | TGI [2] [µM] |
| --- | --- | --- | --- | --- | --- | --- | --- | --- | --- | --- | --- | --- | --- | --- | --- | --- | --- | --- | --- | --- |
| C=C1NC(=O)C(C(C)CC)NC(=O)C2CSCC(NC(=O)CCC(=O)O)C(=O)NC(Cc3ccccc3)C(=O)NC(C)C(=O)NC(CC(C)CC)C(=O)NC(C(=O)NC(Cc3ccccc3)C(=O)N3CCCC3C(=O)N2)C(C)OC(=O)C(CO)NC(=O)C(C(O)COC)N(C)C(=O)C(C(C)C)NC(=O)C(CC(C)CC)NC1=O (stereo not given) | 0.0129 | 0.0557 | 0.0211 | 0.00868 | 0.279 | 0.0304 | > 6 | 0.0242 | > 6 | 0.0217 | > 6 | 0.00411 | 0.359 | 0.0304 | > 6 | 0.0377 | > 6 | 0.0198 | > 6 |  |
| Cc1cc(/C=C/c2ccc3cc(N(C)C)ccc3[n+]2C)c(C)n1-c1ccccc1 | 0.103 | 0.213 | 0.0939 | 0.336 | 2.47 | 0.121 | 0.884 | 0.0635 | 1.15 | 0.0698 | 0.696 | 0.103 | 0.989 | 1.67 | 13.4 | 0.203 | 2.64 | 0.191 | 1.03 | 0.352 |
| N=Nc1c(OC(=O)Nc2cccc(Cl)c2)[nH]c2ccccc12 |  | 19.4 |  |  | 32.6 |  | 20.8 |  | 7.34 |  | 10.7 |  | 11.3 |  | 21.4 |  | 17.5 |  | 13.1 | 30.9 |
| CCN1CCN(c2nc(C)cc(N(CCNc3ccnc4cc(Cl)ccc34)Cc3ccc4c(c3)OCO4)n2)CC1 | 1.63 | 3.27 | 2.1 | 1.7 | 3.18 | 1.77 | 3.35 | 1.73 | 3.87 | 1.31 | 3.76 | 1.95 | 4.06 | 2.82 | 10.8 | 2.03 | 3.96 | 2.21 | 11.5 | 4.22 |
| CCN(CC)c1ccc(-c2cc(-c3cc(OC)c(OC)c(OC)c3)nc(N3CCOCC3)c2C#N)cc1 | 0.439 | 7.48 | 0.463 | 1.36 | 12.7 | 0.189 | 0.791 | 1.29 | > 100 | 0.0387 | 44.7 | 7.07 | 83.3 | 0.709 | 27.8 | 1.97 | 11.1 | 2.24 | 16.5 | 6.08 |
| O=c1c2sccc2n(CC2COc3ccccc3O2)c(=O)n1O (stereo not given) | 36.8 | > 100 | 16.9 | 15.3 | > 100 | 6.45 | > 100 | 16.8 | > 100 | 3.9 | 24.5 | 6.2 | > 100 | 23 | > 100 | 7.6 | > 100 | 8.41 | > 100 | 44.7 |
| O=C1OC(O)[C@@H]2[C@H]1[C@H]1CC[C@@H]2O1 (stereo not given in full) | 1.21 | 6.31 | > 42.3 | > 100 | > 100 | > 100 | > 100 | 15.2 | 42.6 | 49.2 | > 100 | 26.3 | 74.9 | > 100 | > 100 | 2.19 | 4.41 | > 100 | > 100 | > 100 |
| Nc1ncnc2n[nH]c(Nc3ccc(F)cc3)c12 | 17.3 | 66.1 | 38.5 | 23.6 | > 100 | 10.1 | 34 | 21.1 | > 100 | 15.1 | > 100 | 29.8 | > 100 | 65.3 | > 100 | 51.9 | > 100 | 64.8 | > 100 | > 100 |
| CSc1nc(NC2OCC(OC(C)=O)C(OC(C)=O)C2OC(C)=O)c(N=CC=Nc2c(NC3OCC(OC(C)=O)C(OC(C)=O)C3OC(C)=O)nc(SC)[nH]c2=O)c(=O)[nH]1 (stereo not given) |  | > 100 |  |  | > 86.4 |  | > 100 |  | > 100 |  | > 100 |  | > 83.8 |  | > 100 |  | > 100 |  | > 92.6 | > 100 |
| Fc1cc2[nH]ncc2c2c3c(c(-c4cn[nH]c4)nc12)CCCC3 | 0.658 | 2.62 | 1.81 | 1.14 | 2.82 | 0.486 | 2.4 | 1.26 | > 21.5 | 1.08 | 13.6 | 0.829 | 6.12 | 2.38 | 7.9 | 1.52 | 5.75 | 1.6 | > 21 | 5.53 |
| CN(C(=O)c1ccc(C(F)(F)F)cc1)c1ccc(Oc2ccc3c(c2)cc(C(=O)N2CCN(Cc4ccc(OC(F)F)cc4)CC2)n3C)nc1 | 60 | > 100 | < 0.012 | > 100 | > 100 | 0.882 | > 100 | 0.253 | > 58.2 | 0.156 | > 100 | 0.677 | > 90 | 0.437 | > 100 | > 100 | > 100 |  | > 100 | > 100 |
| Cn1cnc([N+](=O)[O-])c1S(=O)(=O)Oc1cccc2ccccc12 | 1.06 | 2.64 | 5.34 | 2.23 | 5.59 | 2.04 | 5.73 | 1.91 | 4.29 | 2.68 | 6.69 | 0.271 | 1.18 | 7.59 | 33 | 13.1 | 26.6 | 2.56 | 5.45 | 31.4 |
| COC1=CC(=O)C(C2CC(=O)c3c(O)cc(O)cc3O2)=CC1=O (stereo not given) |  | 32.3 |  |  | 39.5 |  | 30.9 |  | 42.7 |  | > 100 |  | 30.8 |  | 46.5 |  | 32.1 |  | 34.8 | > 21.3 |
| CC1(C)C2CCC(=O)C1CC2 (stereo not given) |  | > 100 |  |  | > 100 |  | > 100 |  | > 100 |  | > 100 |  | > 100 |  | > 100 |  | > 100 |  | > 100 | > 100 |
| COc1c(Cl)c(=O)oc2ccc(Cl)cc12 |  | > 100 |  |  | > 100 |  | > 100 |  | > 100 |  | > 100 |  | > 100 |  | > 100 |  | > 100 |  | > 100 | > 100 |
| ClCc1cccc(Cn2cnc3ncnc(Cl)c32)c1 | 2.61 | > 100 |  | 19.9 | 36 | 3.11 | 14 | 0.212 | 0.497 | 13.7 | 34.9 | 6.19 | 23.9 | 2.78 | 9.75 | 1.68 | 3.25 | 2.17 | 3.99 |  |
| OCc1ccc(-c2ccc(-c3ccc(CO)s3)o2)s1 |  | 3.01 |  |  | > 85.8 |  | 79.7 |  | 7.59 |  | 62.3 |  | > 100 |  | 71.5 |  | 4.02 |  | 17.2 | 38.2 |
| COc1cc(NCc2ccc3oc(=O)c(-c4ccccc4)nc3c2)cc(OC)c1OC |  | > 10 |  |  | > 10 |  | > 10 |  | > 10 |  | > 10 |  | > 10 |  | > 10 |  | > 10 |  | > 10 | > 10 |
| Cc1cc2c(cc1Cl)SC(N(N(C)C)S(=O)(=O)c1ccc(Cl)cc1)=NS2(=O)=O | 44 | > 100 | 35.2 | 18.2 | 45.8 | 33.4 | > 100 | 15.8 | > 100 | 12.5 | > 100 | 11.1 | 43.9 | 28 | > 100 | 17 | 44.6 | 29.6 | 96.1 | 89.8 |
| O=C(/C=C/c1ccc(Cl)cc1)c1ccc(Nc2ccnc3cc(Cl)ccc23)cc1 | 31.9 | > 100 | 9.16 | > 63.3 | > 100 | > 46.6 | > 100 | > 55.7 | > 100 | 2.08 | > 30.7 | > 100 | > 100 | > 100 | > 100 | > 80.5 | > 100 | 99.2 | > 100 | 59.6 |
| COc1cc(/C=C/c2cc(O)c(C(C)=O)c(O)c2)cc2c1O[C@]1(C)CC[C@@H](O)C(C)(C)[C@H]1C2 | 16.1 | 68.3 | 4.13 | 1.32 | 6.2 | 2.85 | 13.3 | 6.22 | 64.6 |  |  | 17.3 | 54 | 14.3 | 65.8 | 6.7 | 32.4 | 4.56 | 48.4 | 23.8 |
| NC1(C(=O)OCc2ccccc2)CCCC1 |  | 76.7 |  |  | 31.7 |  | 37.7 |  | > 100 |  | 68.2 |  | 42.6 |  | > 100 |  | 76.7 |  | 46.7 | 54.5 |
| O=C(CSc1ccc(Cl)cc1)Nc1ccc(-c2nc3ccccc3s2)c(Cl)c1 | 2.88 | 9.24 | 13.4 | 14.5 | 32.7 | 5.07 | > 100 | 2.54 | 8.63 | 2.66 | > 100 |  |  | 4.39 | 32.6 | 3.09 | 16.3 | 5.91 | 24.8 | > 100 |
| COc1ccc(/C=C(/C#N)n2nnc3cccc(F)c32)cc1 | 0.811 | > 100 | 0.527 | 1.62 | 4.06 | 0.78 | > 100 | 0.503 | > 100 | 2.18 | > 100 | 0.301 | > 100 | 0.371 | 3.37 | 1.83 | 7.14 | 3.25 | > 100 | 16.2 |
| C=C1C(=O)O[C@H]2[C@H]1CC/C(COC(=O)c1c[nH]c3ccccc13)=C\CC[C@@]1(C)O[C@@H]21 | 0.244 | 0.663 | 0.278 | 0.264 | 1 | 0.0471 | 0.312 | 0.401 | 2.26 | 0.0404 | 0.281 | 0.194 | 0.412 | 0.397 | 11 | 0.32 | 1.08 | 0.825 | 2.41 | 0.789 |
| COc1cc(OC)cc(-c2cc(=O)c3c(OC)c(OC)c(OC)c(OC)c3o2)c1 |  | 30.6 |  |  | > 100 |  | > 100 |  | 64.1 |  | > 100 |  | 51.1 |  | > 100 |  | > 100 |  | > 100 | > 100 |
| COc1cccc(-c2nc(-c3ccc(NC(=O)C(C)C)cc3)[nH]c2-c2ccnc(Br)c2)c1 | 2.81 | 7.59 | 1.56 | 1.78 | 6.56 | 1.61 | 3.38 | 2.56 | 11.5 | 0.511 | 2.85 | 2.8 | > 100 | 3.03 | > 100 | 2.03 | 6.01 | 3.44 | > 100 | 5.24 |
| Cc1cc(O)c(/C=N/C(=S)NCc2ccccc2)c(=O)o1 |  | > 100 |  |  | > 100 |  | > 100 |  | > 100 |  |  |  | > 100 |  | > 100 |  | > 100 |  | > 100 | > 100 |
| Cc1ccccc1S(=O)(=O)OC1NS(=O)(=O)c2ccccc21 (stereo not given) |  | > 100 |  |  | > 100 |  | > 100 |  | > 100 |  | > 100 |  | > 100 |  | > 100 |  | > 100 |  | > 100 |  |
